Results as given in PubChem BioAssay (NCI).
Where “and” joins values, the source holds several entries; their conditions need not be identical. Equal entries are not always repeated.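 Grown in 96-well plates, cells were treated for 48 hours with each compound at five concentrations. Insufficient inhibition: endpoint recorded as highest concentration tested. GI50 marks 50% less growth. The concentration for full growth arrest is given as TGI.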

Assays:
Test in all cases: NCI tumour cell line growth inhibition, 48 h
NCI-H460 lung = tested on: NCI-H460 lung
TK-10 renal = tested on: TK-10 renal
CCRF-CEM leukemia = tested on: CCRF-CEM leukemia
HS 578T breast = tested on: HS 578T breast
OVCAR-3 ovarian = tested on: OVCAR-3 ovarian
SK-MEL-2 melanoma = tested on: SK-MEL-2 melanoma
SNB-19 CNS = tested on: SNB-19 CNS
MOLT-4 leukemia = tested on: MOLT-4 leukemia
DLD-1 colon = tested on: DLD-1 colon

| SMILES | GI50 (NCI-H460 lung) | TGI (NCI-H460 lung) | GI50 (TK-10 renal) | TGI (TK-10 renal) | GI50 (CCRF-CEM leukemia) [µM] | TGI (CCRF-CEM leukemia) [µM] | GI50 (HS 578T breast) | TGI (HS 578T breast) | GI50 (OVCAR-3 ovarian) | TGI (OVCAR-3 ovarian) | GI50 (SK-MEL-2 melanoma) | TGI (SK-MEL-2 melanoma) | GI50 (SNB-19 CNS) | TGI (SNB-19 CNS) | GI50 (MOLT-4 leukemia) [µM] | TGI (MOLT-4 leukemia) [µM] | TGI (DLD-1 colon) [µM] |
| --- | --- | --- | --- | --- | --- | --- | --- | --- | --- | --- | --- | --- | --- | --- | --- | --- | --- |
| Cn1c(O)c(N=NC(N)=S)c2ccccc21 | 33.9 µM | > 100 µM | > 100 µM | > 100 µM | 62.1 | > 100 | 23.4 µM | > 100 µM | 33.4 µM | > 100 µM | > 100 µM | > 100 µM | > 100 µM | > 100 µM | > 100 | > 100 | – |
| CC(C)(F)C[C@H](N[C@@H](c1ccc(-c2ccc(S(C)(=O)=O)cc2)cc1)C(F)(F)F)C(=O)NC1(C#N)CC1 | 33.6 µM and 49.7 µM | 55 µM and > 100 µM | > 55 µM and 31.1 µM | > 55 µM and 81.2 µM | > 100 | > 100 | 13.6 µM and 21.1 µM | 55 µM and 63.9 µM | > 55 µM and 19.9 µM | > 55 µM and 47.9 µM | 13.4 µM and 38.6 µM | 55 µM and > 100 µM | 16.6 µM and 18.3 µM | 55 µM and 62.2 µM | > 100 | > 100 | – |
| NC(=S)N/N=C\c1nccc2c(C(F)(F)C(F)(F)C(F)(F)F)cccc12 | 0.0619 µM | 1.21 µM | 0.078 µM | 2.3 µM | 0.0427 | > 100 | 0.889 µM | 22.6 µM | 0.0347 µM | 2.22 µM | 0.388 µM | 3.23 µM | 0.196 µM | 5.21 µM | 0.054 | 8.8 | – |
| O=C(Nc1ccccc1C(=O)Nc1nccs1)c1ccccc1 | – | > 100 µM | – | > 100 µM | – | > 100 | – | > 100 µM | – | 36.6 µM | – | > 100 µM | – | > 100 µM | – | > 100 | – |
| COc1ccc(S(=O)(=O)n2c3ccccc3n3ncc(-c4nnc(C)o4)c23)cc1 | 0.425 µM | > 48.3 µM | 25.4 µM | > 100 µM | 0.431 | > 100 | 0.394 µM | > 100 µM | 0.342 µM | 2.45 µM | 0.815 µM | 82.1 µM | 0.766 µM | > 100 µM | 0.502 | > 100 | – |
| S=C(Nc1ccccc1)N1CCn2c1nsc2=Nc1ccccc1 | > 100 µM | > 100 µM | 26.6 µM | 95 µM | 31.4 | > 100 | 53.4 µM | > 100 µM | 90 µM | > 100 µM | > 100 µM | > 100 µM | > 100 µM | > 100 µM | 56.5 | > 100 | – |
| FC(F)(F)c1cc(NC2=NCCN=C(Nc3cc(C(F)(F)F)cc(C(F)(F)F)c3)SS2)cc(C(F)(F)F)c1 | 3.7 µM | 14.2 µM | 5.25 µM | 19.8 µM | 4.28 | 27 | 5.08 µM | 27.6 µM | 2.94 µM | 8.64 µM | 4.49 µM | 14.3 µM | 4.08 µM | 15.4 µM | 4.71 | 28 | – |
| CCCNc1cccc(-n2ncc3c(N/N=C/c4ccncc4)ncnc32)c1 | 2.65 µM | > 25 µM | 2.37 µM | > 25 µM | > 25 | > 25 | 1.1 µM | > 25 µM | 2.17 µM | > 25 µM | 1.49 µM | > 25 µM | > 25 µM | > 25 µM | > 25 | > 25 | – |
| CC1=NN(C(=O)c2cc(Cl)cc([N+](=O)[O-])c2)C(=O)C1N=Nc1ccccc1C(=O)O (stereo unspecified) | – | > 100 µM | – | > 100 µM | – | > 100 | – | – | – | > 100 µM | – | > 100 µM | – | > 100 µM | – | > 100 | > 100 |
| Cc1ccc(S(=O)(=O)c2ccsc2N)cc1 | > 100 µM | > 100 µM | > 100 µM | > 100 µM | > 100 | > 100 | > 100 µM | > 100 µM | 56.1 µM | > 100 µM | > 100 µM | > 100 µM | > 100 µM | > 100 µM | > 100 | > 100 | – |
| CS(=O)(=O)Nc1cc(-c2ccc3ncnc(Nc4cccc(Cl)c4F)c3c2)cnc1Cl | 4.09 µM | > 100 µM | 1.77 µM | 8.73 µM | 2.59 | > 100 | 0.274 µM | 2.77 µM | 1.84 µM | 7.52 µM | 2.13 µM | 6.79 µM | 2.83 µM | 16.1 µM | 2.31 | 8.46 | – |
| C#CCOc1cccc(Nc2ncc3ncn(C4CCN(C(=O)CCl)C4)c3n2)c1 (stereo unspecified) | > 62.5 µM | > 62.5 µM | > 62.5 µM | > 62.5 µM | 2.46 | > 62.5 | > 62.5 µM | > 62.5 µM | 37.8 µM | > 62.5 µM | > 62.5 µM | > 62.5 µM | > 62.5 µM | > 62.5 µM | 11.3 | > 62.5 | – |
| O=C1NC(O)CCN1C1CC(O)C(CO)O1 (stereo unspecified) | – | > 100 µM | – | > 100 µM | – | > 100 | – | > 100 µM | – | > 100 µM | – | > 100 µM | – | > 100 µM | – | > 100 | – |
| C=C(C)[C@@H]1CC[C@]2(C)[C@H](CC=C3[C@@H]4[C@H](C)[C@@H](C)CC[C@]4(CO)CC[C@]32C)[C@@]1(C)CCCN | 0.914 µM | 1.71 µM | 2.21 µM | 9.75 µM | 1.31 | 5.26 | 0.994 µM | 2.23 µM | 0.934 µM | 1.79 µM | 1.73 µM | 5.04 µM | 2.11 µM | 8.11 µM | 1.35 | 4.07 | – |
| O=c1[nH]cnc2nc(-c3ccc(N(CCCl)CCCl)cc3)[nH]c12 | 4.51 µM | > 100 µM | 15.4 µM | 48.4 µM | > 100 | > 100 | 27.2 µM | > 100 µM | 22.8 µM | 79.6 µM | > 100 µM | > 100 µM | 19.3 µM | > 100 µM | > 100 | > 100 | – |
